Laboratory results: ChEMBL document CHEMBL1201861, “Genomics of Drug Sensitity in Cancer screening data, Wellcome Trust Sanger Institute”

Columns and labels:
COLO-829 = assay: cells; assay type: functional, cell-based; settings: Homo sapiens
Description: SANGER: Inhibition of human COLO-829 cell growth in a cell viability assay.

CP66-MEL = assay: cells; assay type: functional, cell-based; settings: Homo sapiens;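 further: growth inhibition of CP66-MEL cells determined in a cell viability assay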
Description: SANGER: Inhibition of human CP66-MEL cell growth in a cell viability assay.

CW-2 = assay: cells; assay type: functional, cell-based; settings: Homo sapiens;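 further: growth inhibition of CW-2 cells, read out by a cell viability assay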
Description: SANGER: Inhibition of human CW-2 cell growth in a cell viability assay.

DEL = assay: cells; assay type: functional, cell-based; settings: Homo sapiens;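 further: growth inhibition of the human DEL cell line, read out with a cell viability assay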
Description: SANGER: Inhibition of human DEL cell growth in a cell viability assay.

DJM-1 = assay: cells; assay type: functional, cell-based; settings: Homo sapiens;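 further: growth inhibition of human DJM-1 cells, read out by a cell viability assay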
Description: SANGER: Inhibition of human DJM-1 cell growth in a cell viability assay.

EM-2 = assay: cells; assay type: functional, cell-based; settings: Homo sapiens;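 further: growth inhibition of EM-2 cells, read out with a cell viability assay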
Description: SANGER: Inhibition of human EM-2 cell growth in a cell viability assay.

ES4 = assay: cells; assay type: functional, cell-based; settings: Homo sapiens;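 further: growth inhibition of human ES4 cells, read out by a cell viability assay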
Description: SANGER: Inhibition of human ES4 cell growth in a cell viability assay.

EW-18 = assay: cells; assay type: functional, cell-based; settings: Homo sapiens;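 further: growth inhibition of EW-18 cells, read out by a cell viability assay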
Description: SANGER: Inhibition of human EW-18 cell growth in a cell viability assay.

GB-1 = assay: cells; assay type: functional, cell-based; settings: Homo sapiens;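 further: growth of GB-1 cells judged by a viability assay, IC50 marks the concentration inhibiting growth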
Description: SANGER: Inhibition of human GB-1 cell growth in a cell viability assay.

GI-ME-N = assay: cells; assay type: functional, cell-based; settings: Homo sapiens;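 further: growth inhibition of human GI-ME-N cells, read out with a cell viability assay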
Description: SANGER: Inhibition of human GI-ME-N cell growth in a cell viability assay.

GT3TKB = assay: cells; assay type: functional, cell-based; settings: Homo sapiens;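 further: growth inhibition of the cell line, read out with a cell viability assay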
Description: SANGER: Inhibition of human GT3TKB cell growth in a cell viability assay.

HH = assay: cells; assay type: functional, cell-based; settings: Homo sapiens
Description: SANGER: Inhibition of human HH cell growth in a cell viability assay.

HL-60 = assay: cells; assay type: functional, cell-based; settings: Homo sapiens;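 further: growth inhibition of human HL-60 cells, read out with a cell viability assay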
Description: SANGER: Inhibition of human HL-60 cell growth in a cell viability assay.

IM-9 = assay: SANGER: Inhibition of human IM-9 cell growth in a cell viability assay.; assay type: functional, cell-based
IST-SL1 = assay: cells; assay type: functional, cell-based; settings: Homo sapiens;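 further: growth inhibition of human IST-SL1 cells, read out with a cell viability assay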
Description: SANGER: Inhibition of human IST-SL1 cell growth in a cell viability assay.

JAR = assay: cells; assay type: functional, cell-based; settings: Homo sapiens;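 further: growth inhibition of human JAR cells determined with a cell viability assay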
Description: SANGER: Inhibition of human JAR cell growth in a cell viability assay.

KM12 = assay: cells; assay type: functional, cell-based; settings: Homo sapiens;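 further: KM12 cell growth inhibition, read out with a cell viability assay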
Description: SANGER: Inhibition of human KM12 cell growth in a cell viability assay.

KY821 = assay: cells; assay type: functional, cell-based; settings: Homo sapiens;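 further: growth inhibition of human KY821 cells, read out by a cell viability assay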
Description: SANGER: Inhibition of human KY821 cell growth in a cell viability assay.

L-363 = assay: cells; assay type: functional, cell-based; settings: Homo sapiens
Description: SANGER: Inhibition of human L-363 cell growth in a cell viability assay.

LB2241-RCC = assay: cells; assay type: functional, cell-based; settings: Homo sapiens;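 further: cell viability assay measuring how strongly the cultured human renal carcinoma line is prevented from growing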
Description: SANGER: Inhibition of human LB2241-RCC cell growth in a cell viability assay.

LB831-BLC = assay: cells; assay type: functional, cell-based; settings: Homo sapiens;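 further: growth inhibition of LB831-BLC cells, read out with a cell viability assay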
Description: SANGER: Inhibition of human LB831-BLC cell growth in a cell viability assay.

LS-123 = assay: cells; assay type: functional, cell-based; settings: Homo sapiens
Description: SANGER: Inhibition of human LS-123 cell growth in a cell viability assay.

LS-411N = assay: cells; assay type: functional, cell-based; settings: Homo sapiens
LU-134-A = assay: cells; assay type: functional, cell-based; settings: Homo sapiens
Description: SANGER: Inhibition of human LU-134-A cell growth in a cell viability assay.

LU-165 = assay: cells; assay type: functional, cell-based; settings: Homo sapiens
Description: SANGER: Inhibition of human LU-165 cell growth in a cell viability assay.

MEG-01 = assay: cells; assay type: functional, cell-based; settings: Homo sapiens;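 further: growth inhibition of MEG-01 cells, read out by a cell viability assay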
Description: SANGER: Inhibition of human MEG-01 cell growth in a cell viability assay.

MFH-ino = assay: cells; assay type: functional, cell-based; settings: Homo sapiens;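 further: growth inhibition of human MFH-ino cells, read out by a cell viability assay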
Description: SANGER: Inhibition of human MFH-ino cell growth in a cell viability assay.

MOLT-16 = assay: cells; assay type: functional, cell-based; settings: Homo sapiens;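 further: growth inhibition of human MOLT-16 cells, read out with a cell viability assay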
Description: SANGER: Inhibition of human MOLT-16 cell growth in a cell viability assay.

MOLT-4 = assay: cells; assay type: functional, cell-based; settings: Homo sapiens;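 further: growth inhibition of MOLT-4 cells, determined with a cell viability readout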
Description: SANGER: Inhibition of human MOLT-4 cell growth in a cell viability assay.

MV4-11 = assay: cells; assay type: functional, cell-based, MV-4-11; settings: Homo sapiens;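 further: cell viability readout measuring growth inhibition of human MV-4-11 cells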
Description: SANGER: Inhibition of human MV-4-11 cell growth in a cell viability assay.

MZ2-MEL = assay: cells; assay type: functional, cell-based; settings: Homo sapiens;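 further: growth inhibition of MZ2-MEL cells read out with a cell viability assay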
Description: SANGER: Inhibition of human MZ2-MEL cell growth in a cell viability assay.

NB13 = assay: cells; assay type: functional, cell-based; settings: Homo sapiens;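 further: cell viability readout measuring growth inhibition of human NB13 cells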
Description: SANGER: Inhibition of human NB13 cell growth in a cell viability assay.

NB69 = assay: cells; assay type: functional, cell-based; settings: Homo sapiens;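 further: growth inhibition of NB69 cells, determined by a cell viability assay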
Description: SANGER: Inhibition of human NB69 cell growth in a cell viability assay.

NCI-H1395 = assay: cells; assay type: functional, cell-based; settings: Homo sapiens;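 further: cell viability assay read-out quantifying reduced proliferation of human NCI-H1395 cells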
Description: SANGER: Inhibition of human NCI-H1395 cell growth in a cell viability assay.

NCI-H1581 = assay: cells; assay type: functional, cell-based; settings: Homo sapiens;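 further: cell growth inhibition read out by a viability assay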
Description: SANGER: Inhibition of human NCI-H1581 cell growth in a cell viability assay.

NCI-H2126 = assay: cells; assay type: functional, cell-based; settings: Homo sapiens;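 further: growth inhibition of the cancer cell line, determined with a cell viability readout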
Description: SANGER: Inhibition of human NCI-H2126 cell growth in a cell viability assay.

NCI-H526 = assay: cells; assay type: functional, cell-based; settings: Homo sapiens;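 further: growth inhibition of the human NCI-H526 cell line, measured by a cell viability assay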
Description: SANGER: Inhibition of human NCI-H526 cell growth in a cell viability assay.

NCI-H720 = assay: cells; assay type: functional, cell-based; settings: Homo sapiens;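 further: growth inhibition of human NCI-H720 cells determined by a cell viability assay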
Description: SANGER: Inhibition of human NCI-H720 cell growth in a cell viability assay.

NKM-1 = assay: cells; assay type: functional, cell-based; settings: Homo sapiens;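 further: growth inhibition of NKM-1 cells, read out with a cell viability assay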
Description: SANGER: Inhibition of human NKM-1 cell growth in a cell viability assay.

P30-OHK = assay: cells; assay type: functional, cell-based; settings: Homo sapiens;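 further: growth inhibition of the P30-OHK cell line, read out with a cell viability assay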
Description: SANGER: Inhibition of human P30-OHK cell growth in a cell viability assay.

RS4-11 = assay: cells; assay type: functional, cell-based; settings: Homo sapiens;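 further: growth inhibition of RS4-11 cells, read out by a cell viability assay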
Description: SANGER: Inhibition of human RS4-11 cell growth in a cell viability assay.

RXF 393 = assay: cells; assay type: functional, cell-based; settings: Homo sapiens;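 further: growth inhibition of human RXF 393 cells, read out with a cell viability assay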
Description: SANGER: Inhibition of human RXF393 cell growth in a cell viability assay.

SK-LMS-1 = assay: cells; assay type: functional, cell-based; settings: Homo sapiens;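 further: growth inhibition of human SK-LMS-1 cells, read out with a cell viability assay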
Description: SANGER: Inhibition of human SK-LMS-1 cell growth in a cell viability assay.

SW982 = assay: cells; assay type: functional, cell-based; settings: Homo sapiens;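 further: growth inhibition of SW982 cells, read out with a cell viability assay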
Description: SANGER: Inhibition of human SW982 cell growth in a cell viability assay.

A4-Fuk = assay: cells; assay type: functional, cell-based; settings: Homo sapiens;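 further: growth inhibition of A4-Fuk cells, read out by a cell viability assay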
Description: SANGER: Inhibition of human A4-Fuk cell growth in a cell viability assay.

ACN = assay: cells; assay type: functional, cell-based; settings: Homo sapiens;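 further: growth inhibition of the human ACN cell line, read out via cell viability testing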
Description: SANGER: Inhibition of human ACN cell growth in a cell viability assay.

ALL-PO = assay: cells; assay type: functional, cell-based; settings: Homo sapiens;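 further: growth inhibition of ALL-PO cells, read out by a cell viability assay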
Description: SANGER: Inhibition of human ALL-PO cell growth in a cell viability assay.

BB49-HNC = assay: cells; assay type: functional, cell-based; settings: Homo sapiens;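 further: cell viability assay read-out, reported as inhibition of BB49-HNC cell growth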
Description: SANGER: Inhibition of human BB49-HNC cell growth in a cell viability assay.

BB65-RCC = assay: cells; assay type: functional, cell-based; settings: Homo sapiens;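 further: growth inhibition of the cell line, measured with a cell viability assay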
Description: SANGER: Inhibition of human BB65-RCC cell growth in a cell viability assay.

BV-173 = assay: cells; assay type: functional, cell-based; settings: Homo sapiens
Description: SANGER: Inhibition of human BV-173 cell growth in a cell viability assay.

Becker = assay: cells; assay type: functional, cell-based; settings: Homo sapiens;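 further: growth inhibition of Becker cells, read out with a cell viability assay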
Description: SANGER: Inhibition of human Becker cell growth in a cell viability assay.

TGBC24TKB = assay: cells; assay type: functional, cell-based; settings: Homo sapiens;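 further: growth inhibition of human TGBC24TKB cells, read out with a cell viability assay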
Description: SANGER: Inhibition of human TGBC24TKB cell growth in a cell viability assay.

U-266 = assay: cells; assay type: functional, cell-based; settings: Homo sapiens
Description: SANGER: Inhibition of human U-266 cell growth in a cell viability assay.

VA-ES-BJ = assay: cells; assay type: functional, cell-based; settings: Homo sapiens;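 further: growth inhibition of the VA-ES-BJ cell line, read out by a cell viability assay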
Description: SANGER: Inhibition of human VA-ES-BJ cell growth in a cell viability assay.

COLO-320-HSR = assay: cells; assay type: functional, cell-based; settings: Homo sapiens;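 further: growth inhibition of COLO-320-HSR cells, determined with a cell viability assay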
Description: SANGER: Inhibition of human COLO-320-HSR cell growth in a cell viability assay.

DoTc2-4510 = assay: cells; assay type: functional, cell-based; settings: Homo sapiens
IGROV-1 = assay: cells; assay type: functional, cell-based; settings: Homo sapiens;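 further: reduction of IGROV-1 cell growth, read out with a viability assay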
Description: SANGER: Inhibition of human IGROV-1 cell growth in a cell viability assay.

MIA PaCa-2 = assay: cells; assay type: functional, cell-based; settings: Homo sapiens;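 further: growth inhibition of MIA PaCa-2 cells, read out with a cell viability assay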
Description: SANGER: Inhibition of human MIA-PaCa-2 cell growth in a cell viability assay.

MKN-45 = assay: cells; assay type: functional, cell-based; settings: Homo sapiens
Description: SANGER: Inhibition of human MKN45 cell growth in a cell viability assay.

NCI-H1299 = assay: cells; assay type: functional, cell-based; settings: Homo sapiens
Description: SANGER: Inhibition of human NCI-H1299 cell growth in a cell viability assay.

NCI-H1651 = assay: cells; assay type: functional, cell-based; settings: Homo sapiens
Description: SANGER: Inhibition of human NCI-H1651 cell growth in a cell viability assay.

RPMI-2650 = assay: cells; assay type: functional, cell-based; settings: Homo sapiens
Description: SANGER: Inhibition of human RPMI-2650 cell growth in a cell viability assay.

A204 = assay: cells; assay type: functional, cell-based; settings: Homo sapiens
Description: SANGER: Inhibition of human A204 cell growth in a cell viability assay.

A-431 = assay: cells; assay type: functional, cell-based; settings: Homo sapiens
Description: SANGER: Inhibition of human A431 cell growth in a cell viability assay.

BCPAP = assay: cells; assay type: functional, cell-based; settings: Homo sapiens
Description: SANGER: Inhibition of human BCPAP cell growth in a cell viability assay.

Measured: IC50

CCNc1cc(N[C@H]2CC[C@@H](O)CC2)nc(Nc2ccc3c(ccn3Cc3ccccc3)c2)n1
3.74 µM: RS4-11
not listed: DoTc2-4510 | IGROV-1 | MIA PaCa-2 | MKN-45 | NCI-H1299 | NCI-H1651 | RPMI-2650 | A204 | A-431 | BCPAP
> 5.12 µM: all other assays above

CCCS(=O)(=O)Nc1ccc(F)c(C(=O)c2c[nH]c3ncc(Cl)cc23)c1F [PLX-4720]
0.39 µM: COLO-829
9.6 µM: RS4-11
7.37 µM: LB2241-RCC
4.16 µM: CP66-MEL
4.49 µM: NB13
0.796 µM: BV-173
8.42 µM: SW982
9.05 µM: KY821
0.385 µM: ACN
7.22 µM: BCPAP
not listed: IM-9 | LU-165
> 10 µM: all other assays above

C[C@]1(c2nc3c(C(N)=O)cccc3[nH]2)CCCN1 [VELIPARIB]
not listed: IM-9 | LU-165
> 5 µM: all other assays above

CC[C@]1(O)C[C@@H]2CN(CCc3c([nH]c4ccccc34)[C@@](C(=O)OC)(c3cc4c(cc3OC)N(C)[C@H]3[C@@](O)(C(=O)OC)[C@H](OC(C)=O)[C@]5(CC)C=CCN6CC[C@]43[C@@H]65)C2)C1 [VINBLASTINE]
0.0259 µM: NCI-H2126
0.0266 µM: RPMI-2650
0.0586 µM: SK-LMS-1
0.0144 µM: KM12
0.0108 µM: U-266
0.00339 µM: MIA PaCa-2
0.00876 µM: A204
0.0484 µM: MKN-45
0.00327 µM: NB13 | VA-ES-BJ
0.00521 µM: ALL-PO
0.023 µM: NCI-H1651
0.0111 µM: P30-OHK
0.0486 µM: CP66-MEL
0.0325 µM: TGBC24TKB
0.0212 µM: LB831-BLC
0.00608 µM: GI-ME-N
0.00637 µM: HH
0.00451 µM: RS4-11
0.00514 µM: NCI-H526
0.00532 µM: EM-2
0.00119 µM: IST-SL1
0.0207 µM: BB65-RCC
0.00127 µM: NKM-1
0.0603 µM: MZ2-MEL
0.00385 µM: MOLT-4
0.00243 µM: MOLT-16
0.00281 µM: MV4-11
0.0192 µM: COLO-829
0.00573 µM: NB69
0.00113 µM: Becker
0.00192 µM: GT3TKB
0.00437 µM: HL-60
0.00216 µM: DEL
0.0126 µM: BB49-HNC
0.006 µM: L-363
0.00428 µM: NCI-H1395
0.0398 µM: GB-1
0.0164 µM: NCI-H1299
0.0533 µM: LS-123
0.00892 µM: SW982
0.0101 µM: LB2241-RCC
0.0423 µM: BV-173
0.00369 µM: KY821
0.0664 µM: LS-411N
0.00858 µM: LU-134-A
0.00144 µM: RXF 393
0.0165 µM: DoTc2-4510
0.00187 µM: A4-Fuk
0.0147 µM: MEG-01
0.0403 µM: ACN
0.000608 µM: JAR
0.00424 µM: NCI-H1581
0.0138 µM: ES4
0.00688 µM: NCI-H720
0.00233 µM: BCPAP
not listed: IM-9 | LU-165
> 0.1 µM: all other assays above
